Data: publication PMC7552917, “Systematic exploration of different E3 ubiquitin ligases: an approach towards potent and selective CDK6 degraders” (Chemical Science, 2020)

Columns and labels:
[1] = elog D7.4 by chromatographic (HPLC) method; assay type: physicochemical; conditions: Polaris C18-A column, pH 7.4, read-out: elog D7.4 (experimental distribution coefficient at pH 7.4)
Description: Supplementary Information: Physical Chemistry
N. Molecular Descriptor Calculation […]
O. Physicochemical Measurements
The determination of the elog D7.4 values was performed by a chromatographic method according to […]
The column was a Polaris C18-A column (2 mm I.D., 50 mm length, 3 μm particle size) from Agilent Technologies. A linear mobile phase gradient was applied with […] TRIS buffer adjusted to pH 7.4 and MeCN. Therefore, the gradient was run from 5% […]
between the runs with a constant flow-rate of 0.8 ml/min and a temperature of 25 °C. The output wavelength of the detector was set to 269.5 nm. In order to calibrate the log D7.4 to the retention time, 6 different drugs with known log D7.4 were dissolved in DMSO and 10 µl were injected […]
Approximately 1 mg of the samples was dissolved in DMSO and 5 µl were injected. Analyses were conducted in duplicates. Subsequently, the mean retention times of the analytes were taken to calculate their log D7.4 values with aid of the calibration line.

[2] = molecular target: T1, CDK4 (Homo sapiens, UniProt P11802); assay: CDK4 degradation, western blot of MM.1S cells; assay type: cell-based; conditions: 16 h, MM.1S cells; for Effect of MDM2 ligands on CDK4 levels: indicated concentrations
T1 construct: Percentage values are normalized to DMSO-treated MM.1S cells and the respective loading controls; endogenous in cells; host or cells: MM.1S (human multiple myeloma)
From the text: (§1) We determined the concentration of both kinases and CRBN, the latter in order to control the expression of the corresponding ligase. Since IMiDs, such as pomalidomide, cause the degradation of the lymphoid transcription factors Ikaros (IKZF1) and Aiolos (IKZF3) through the involvement of CRBN,[53],[54] this undesired effect was inspected. […] As further characteristics of CDK4/6d, the desired selectivity of CDK6 over CDK4 degradation and the unwanted influence on the IKZF1 concentration were determined. […] Next, we determined the concentration- and time-dependent activity of 11 (Fig. S2, ESI ^†).
(§2) Multiple myeloma, leukaemia, and murine cell lines:
(§3) After respective designated treatments, cells were washed with 1× PBS and lysed in IP lysis buffer (Pierce) containing HALT protease and phosphatase inhibitor cocktail (Thermo Scientific). Sodium dodecyl sulfate-polyacrylamide gel electrophoresis (SDS-PAGE) was performed with 5–20 µg of protein loaded per sample. Gel electrophoresis was carried out at a constant voltage. Proteins were transferred onto Immobilon-P transfer membranes (Millipore). Membranes were blocked with 5% milk in Tris Buffered Saline with 0.05% Tween 20 (TBS-T) followed by overnight incubation at 4 °C with shaking in primary antibodies diluted in 5% BSA in TBS-T. After incubation with respective secondary HRP-conjugated antibodies diluted in 5% milk in TBST, detection of proteins was performed using either WesternBright ECL HRP substrate or WesternBright Sirius HRP substrate (Advansta). Chemiluminescence was detected with ChemiDoc™ XRS+ System (Bio-Rad). For further detection of other proteins on the same membrane, membranes were subjected to incubation in Restore Western Blot Stripping Buffer, followed by re-blocking, and further probing of proteins was […]

[3] = molecular target: T2, CDK6 (Homo sapiens, UniProt Q00534); assay: CDK6 degradation, western blot of MM.1S cells; assay type: cell-based; conditions: 16 h, MM.1S cells; for remaining activity at 0.1 µM / Selectivity ratio D CDK4/D CDK6 for the degradation of CDK6 over CDK4: 0.1 μM
T2 construct: Percentage values are normalized to DMSO-treated MM.1S cells and the respective loading controls; endogenous in cells; host or cells: MM.1S (human multiple myeloma)
From the text: as §1, §2, §3

[4] = MM1.S, normalized to DMSO (100%), read-out: D CDK4: remaining CDK4 levels
[5] = MM1.S, normalized to DMSO (100%), read-out: D CDK6: remaining CDK6 levels

T1 sequence (P11802 whole entry): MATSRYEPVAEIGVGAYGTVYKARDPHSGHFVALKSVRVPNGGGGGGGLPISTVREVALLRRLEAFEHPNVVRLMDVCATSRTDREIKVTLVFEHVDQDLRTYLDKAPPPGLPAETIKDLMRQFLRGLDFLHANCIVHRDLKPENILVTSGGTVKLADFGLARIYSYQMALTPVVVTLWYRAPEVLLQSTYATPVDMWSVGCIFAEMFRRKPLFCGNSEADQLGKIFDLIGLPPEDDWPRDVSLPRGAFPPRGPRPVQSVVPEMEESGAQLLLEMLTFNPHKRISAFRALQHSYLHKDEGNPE
T2 sequence (Q00534 whole entry): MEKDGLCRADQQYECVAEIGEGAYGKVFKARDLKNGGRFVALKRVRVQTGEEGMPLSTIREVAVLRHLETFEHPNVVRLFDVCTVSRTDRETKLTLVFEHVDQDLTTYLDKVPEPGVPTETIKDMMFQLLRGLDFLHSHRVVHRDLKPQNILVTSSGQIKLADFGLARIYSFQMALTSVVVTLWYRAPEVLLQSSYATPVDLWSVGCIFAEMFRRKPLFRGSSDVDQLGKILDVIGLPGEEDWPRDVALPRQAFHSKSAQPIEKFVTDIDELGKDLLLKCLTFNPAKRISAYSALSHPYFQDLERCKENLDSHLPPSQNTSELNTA

Row | SMILES | chromatographic logD [1] | remaining activity at 0.1 µM [2, 4] [%] | remaining activity at 0.1 µM [3, 5] [%] | Effect of MDM2 ligands on CDK4 levels [2] | Selectivity ratio D CDK4/D CDK6 for the degradation of CDK6 over CDK4 [3] | remaining activity at 1 µM ([2]; MM1.S, 1 μM, normalized to DMSO (100%), read-out: D CDK4: remaining CDK4 levels) [%] | remaining activity at 1 µM ([3]; MM1.S, 1 μM, normalized to DMSO (100%), read-out: D CDK6: remaining CDK6 levels) [%]
1 | CC(=O)c1c(C)c2cnc(Nc3ccc(N4CCN(CCCCCCOCCCCCOCCCCCOc5cc(-c6scnc6C)ccc5CNC(=O)[C@@H]5C[C@@H](O)CN5C(=O)[C@H](C(C)C)N5Cc6ccccc6C5=O)CC4)cn3)nc2n(C2CCCC2)c1=O [compound 31] | 5.3 | > 95 | 65 | – | – | – | –
2 | CC(=O)c1c(C)c2cnc(Nc3ccc(N4CCN(CCOCCOCCOc5cc(-c6scnc6C)ccc5CNC(=O)[C@@H]5C[C@@H](O)CN5C(=O)[C@H](C(C)C)N5Cc6ccccc6C5=O)CC4)cn3)nc2n(C2CCCC2)c1=O [compound 29] | 3.2 | > 95 | 29 | – | – | – | –
3 | CC(C)[C@@H](CS(=O)(=O)C(C)C)N1C(=O)[C@@](C)(CC(=O)O)C[C@H](c2cccc(Cl)c2)[C@H]1c1ccc(Cl)cc1 [AMG232, reference compound] | – | – | – | diminished CDK4 levels in a dose-dependent manner | – | – | –
4 | CC(=O)c1c(C)c2cnc(Nc3ccc(N4CCN(CCOCCOCCOCCOc5cc(-c6scnc6C)ccc5CNC(=O)[C@@H]5C[C@@H](O)CN5C(=O)[C@H](C(C)C)N5Cc6ccccc6C5=O)CC4)cn3)nc2n(C2CCCC2)c1=O [compound 30] | 3.1 | 94 | 69 | – | 1.4 | – | –
5 | CC(=O)c1c(C)c2cnc(Nc3ccc(N4CCN(CCOCCOCC(=O)N[C@H](C(=O)N5C[C@H](O)C[C@H]5C(=O)NCc5ccc(-c6scnc6C)cc5)C(C)(C)C)CC4)cn3)nc2n(C2CCCC2)c1=O [compound 23] | 2.7 | 61 | 8.2 | – | 7.4 | – | –
6 | CC(=O)c1c(C)c2cnc(Nc3ccc(N4CCN(CCCCCCCCOc5cc(-c6scnc6C)ccc5CNC(=O)[C@@H]5C[C@@H](O)CN5C(=O)[C@H](C(C)C)N5Cc6ccccc6C5=O)CC4)cn3)nc2n(C2CCCC2)c1=O [compound 28] | 4.5 | > 95 | 62 | – | – | – | –
7 | CC(=O)c1c(C)c2cnc(Nc3ccc(N4CCN(CCOCCOCCOc5cc(-c6scnc6C)ccc5CNC(=O)[C@@H]5C[C@@H](O)CN5C(=O)[C@@H](NC(=O)C5(C#N)CC5)C(C)(C)C)CC4)cn3)nc2n(C2CCCC2)c1=O [compound 33] | 3 | 65 | 1.4 | – | 46 | – | –
8 | CC(=O)c1c(C)c2cnc(Nc3ccc(N4CCN(CCCCCCOCCCCCOCCCCC(=O)N[C@H](C(=O)N5C[C@H](O)C[C@H]5C(=O)NCc5ccc(-c6scnc6C)cc5)C(C)(C)C)CC4)cn3)nc2n(C2CCCC2)c1=O [compound 25] | 4.8 | > 95 | 40 | – | – | – | –
9 | CC(=O)c1c(C)c2cnc(Nc3ccc(N4CCN(CCOCCOCCOCC(=O)N[C@H](C(=O)N5C[C@H](O)C[C@H]5C(=O)NCc5ccc(-c6scnc6C)cc5)C(C)(C)C)CC4)cn3)nc2n(C2CCCC2)c1=O [compound 24] | 3.5 | 80 | 14 | – | 5.7 | – | –
10 | COc1cc(C(=O)O)ccc1NC(=O)[C@@H]1N[C@@H](CC(C)(C)C)[C@](C#N)(c2ccc(Cl)cc2F)[C@H]1c1cccc(Cl)c1F [6 (Idasanutlin), idasanutlin, reference compound] | – | 78 | 83 | dose-dependent effects on CDK4 levels | 0.9 | 40 | 70
